Reference: patent US11628160B2, “Compositions and methods for treating brain injury” (Azevan Pharmaceuticals, Inc., priority 2017, dated 2023)

Molecular target: T1, human V1a receptor (Homo sapiens, UniProt P37288)
T1 construct: host or cells: CHO cells
Assay: Human vasopressin V1a receptor binding assay
Settings: hV1a CHO cell line, competition with 1 nM 3H-AVP; for IC50: read-out: V1a Binding Affinity IC50; for Ki: read-out: V1a Ki
Procedure: EXAMPLE. Human vasopressin V1a receptor binding assay. A cell line expressing the human V1a receptor in CHO cells (henceforth referred to as the hV1a cell line) was obtained from Dr. Michael Brownstein, NIMH, Bethesda, Md., USA. The hV1a cDNA sequence is described by Thibonnier et al., Journal of Biological Chemistry, 269, 3304-3310 (1994), and the expression method was the same as described by Morel et al. (1992). The hV1a cell line was grown in alpha-MEM with 10% fetal bovine serum and 250 ug/ml G418 (Gibco, Grand Island, N.Y., USA). For competitive binding assay, hV1a cells were plated into 6-well culture plate at 1:10 dilution from a confluency flask, and maintained in culture for at least two days. Culture medium was then removed, cells were washed with 2 ml binding buffer (25 mM Hepes, 0.25% BSA, 1×DMEM, PH=7.0). To each well, 990 μl binding buffer containing 1 nM 3H-AVP was added, and followed by 10 μl series diluted Example compounds dissolved in DMSO. […] 100 nM cold AVP (Sigma) was used to assess non-specific binding. Cells were incubated for 45 minutes at 37° C., assay mixture was removed and each well was washed three times with PBS (pH=7.4). 1 ml 2% SDS was added per well and plates were let sit for 30 minutes. The whole content in a well was transferred to a scintillation vial. Each well was rinsed with 0.5 ml PBS which was then added to the corresponding vial. Scintillation fluid (Ecoscint, National Diagnostics, Atlanta, Ga.) was then added at 3 ml per vial. Samples were counted in a liquid scintillation counter (Beckman LS3801). IC50 values were calculated by Prism Curve fitting software.
All of the alkanedioic esters and amides exemplified in the foregoing examples dissolved in DMSO were tested in this assay. Binding curves were generated according to methods described by Thibonnier et al. (1994). [^3H]-AVP was added to the hV1a cell cultures followed by 10-fold dilutions of each test compound.

T1 sequence (P37288 whole entry): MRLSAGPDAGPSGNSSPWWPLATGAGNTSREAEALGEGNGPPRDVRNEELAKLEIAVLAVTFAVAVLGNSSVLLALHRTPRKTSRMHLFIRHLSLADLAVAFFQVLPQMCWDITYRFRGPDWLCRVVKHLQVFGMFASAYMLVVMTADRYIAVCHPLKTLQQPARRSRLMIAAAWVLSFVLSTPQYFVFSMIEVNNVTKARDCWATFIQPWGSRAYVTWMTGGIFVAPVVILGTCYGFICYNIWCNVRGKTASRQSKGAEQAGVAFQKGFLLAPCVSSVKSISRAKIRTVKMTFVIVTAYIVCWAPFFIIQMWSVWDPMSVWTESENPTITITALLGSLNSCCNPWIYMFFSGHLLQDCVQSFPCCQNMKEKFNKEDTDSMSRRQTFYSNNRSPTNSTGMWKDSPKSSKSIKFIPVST

Compound | IC50 [nM] | Ki [nM]
O=C(NCc1cccc(C(F)(F)F)c1)C(CC(=O)N1CCN(N2CCCC2)CC1)N1C(=O)C(N2C(=O)OCC2c2ccccc2)C1C=Cc1ccccc1 (stereo not drawn) [Example 47] | ~50 | –
O=C(CCC(C(=O)NCc1cccc(C(F)(F)F)c1)N1C(=O)C(N2C(=O)OCC2c2ccccc2)C1C=Cc1ccccc1)NCCN1CCCCC1 (stereo not drawn) [Example 87] | 15 | –
O=C(NCc1cccc(C(F)(F)F)c1)[C@H](CCC(=O)N1CCN(N2CCCC2)CC1)N1C(=O)[C@@H](N2C(=O)OC[C@@H]2c2ccccc2)[C@H]1/C=C/c1ccccc1 [Example 91] | 3.24 | 1.99
O=C(NCc1cccc(C(F)(F)F)c1)C(CCC(=O)N1CCN(C2CCCCC2)CC1)N1C(=O)C(N2C(=O)OCC2c2ccccc2)C1C=Cc1ccccc1 (stereo not drawn) [Example 120H] | 2.75 | 1.68
O=C(NCc1cccc(OC(F)(F)F)c1)C(CCC(=O)N1CCN(C2CCCCC2)CC1)N1C(=O)C(N2C(=O)OCC2c2ccccc2)C1C=Cc1ccccc1 (stereo not drawn) [Example 172] | 4.5 | 2.78
O=C(NCc1cc(Cl)cc(Cl)c1)C(CCC(=O)N1CCN(C2CCCCC2)CC1)N1C(=O)C(N2C(=O)OCC2c2ccccc2)C1C=Cc1ccccc1 (stereo not drawn) [Example 174] | 1.46 | 0.89
O=C(NCc1cc(C(F)(F)F)ccc1F)C(CCC(=O)N1CCN(C2CCCCC2)CC1)N1C(=O)C(N2C(=O)OCC2c2ccccc2)C1C=Cc1ccccc1 (stereo not drawn) [Example 177] | 0.67 | 0.41
O=C(NCc1cc(F)cc(C(F)(F)F)c1)C(CCC(=O)N1CCN(C2CCCCC2)CC1)N1C(=O)C(N2C(=O)OCC2c2ccccc2)C1C=Cc1ccccc1 (stereo not drawn) [Example 179] | 0.81 | 0.51
O=C(NCc1cccc(C(F)(F)F)c1F)C(CCC(=O)N1CCN(C2CCCCC2)CC1)N1C(=O)C(N2C(=O)OCC2c2ccccc2)C1C=Cc1ccccc1 (stereo not drawn) [Example 180] | 0.33 | 0.2
O=C(NCc1ccccc1C(F)(F)F)C(CCC(=O)N1CCN(C2CCCCC2)CC1)N1C(=O)C(N2C(=O)OCC2c2ccccc2)C1C=Cc1ccccc1 (stereo not drawn) [Example 182] | 1.52 | 0.93
O=C(NCc1cccc(Cl)c1)C(CCC(=O)N1CCN(C2CCCCC2)CC1)N1C(=O)C(N2C(=O)OCC2c2ccccc2)C1C=Cc1ccccc1 (stereo not drawn) [Example 187] | 1 | 0.66
O=C(NCc1cc(C(F)(F)F)cc(C(F)(F)F)c1)C(CCC(=O)N1CCN(C2CCCCC2)CC1)N1C(=O)C(N2C(=O)OCC2c2ccccc2)C1C=Cc1ccccc1 (stereo not drawn) [Example 188] | 7.26 | 4.45
O=C(NCc1cccc([N+](=O)[O-])c1)C(CCC(=O)N1CCN(C2CCCCC2)CC1)N1C(=O)C(N2C(=O)OCC2c2ccccc2)C1C=Cc1ccccc1 (stereo not drawn) [Example 189] | 1.7 | 1.04
O=C(NCc1cccc(Br)c1)C(CCC(=O)N1CCN(C2CCCCC2)CC1)N1C(=O)C(N2C(=O)OCC2c2ccccc2)C1C=Cc1ccccc1 (stereo not drawn) [Example 190] | 0.88 | 0.54
O=C(NCc1ccccc1)C(CCC(=O)N1CCN(C2CCCCC2)CC1)N1C(=O)C(N2C(=O)OCC2c2ccccc2)C1C=Cc1ccccc1 (stereo not drawn) [Example 191] | 2.92 | 1.79
CCCCN(Cc1ccccc1)C(=O)[C@H](CCC(=O)N1CCN(C2CCCCC2)CC1)N1C(=O)[C@@H](N2C(=O)OC[C@@H]2c2ccccc2)[C@H]1/C=C/c1ccccc1 [Example 198] | ~100 | –
CC(C)(NC(=O)C(CCC(=O)N1CCN(C2CCCCC2)CC1)N1C(=O)C(N2C(=O)OCC2c2ccccc2)C1C=Cc1ccccc1)c1ccccc1 (stereo not drawn) [Example 204] | 6 | 3.7
CN(Cc1cccc(C(F)(F)F)c1)C(=O)C(CCC(=O)N1CCN(C2CCCCC2)CC1)N1C(=O)C(N2C(=O)OCC2c2ccccc2)C1C=Cc1ccccc1 (stereo not drawn) [Example 205] | 0.34 | 0.21
CC(NC(=O)C(CCC(=O)N1CCN(C2CCCCC2)CC1)N1C(=O)C(N2C(=O)OCC2c2ccccc2)C1C=Cc1ccccc1)c1ccccc1 (stereo not drawn) [Example 206] | 1.58 | 0.97
O=C(NC1(c2ccccc2)CC1)C(CCC(=O)N1CCN(C2CCCCC2)CC1)N1C(=O)C(N2C(=O)OCC2c2ccccc2)C1C=Cc1ccccc1 (stereo not drawn) [Example 207] | 4.48 | 2.74
O=C(NCc1ccccn1)C(CCC(=O)N1CCN(C2CCCCC2)CC1)N1C(=O)C(N2C(=O)OCC2c2ccccc2)C1C=Cc1ccccc1 (stereo not drawn) [Example 208] | 16.3 | 10
O=C(NCc1ccncc1)C(CCC(=O)N1CCN(C2CCCCC2)CC1)N1C(=O)C(N2C(=O)OCC2c2ccccc2)C1C=Cc1ccccc1 (stereo not drawn) [Example 210] | 29.5 | 18.1
Cc1ccc(CNC(=O)C(CCC(=O)N2CCN(C3CCCCC3)CC2)N2C(=O)C(N3C(=O)OCC3c3ccccc3)C2C=Cc2ccccc2)o1 (stereo not drawn) [Example 212] | 0.95 | 0.58

Continued by falling IC50, values first:

IC50 [nM] | Ki [nM] | Compound
50 | – | O=C(NCc1cccc(C(F)(F)F)c1)[C@H](CC(=O)N1CCN(C2CCCCC2)CC1)N1C(=O)[C@@H](N2C(=O)OC[C@@H]2c2ccccc2)[C@H]1/C=C/c1ccccc1 [Example 66]
44.8 | 27.5 | O=C(NCc1cccc(C(F)(F)F)c1)C(CC(=O)N1CCN(N2CCCC2)CC1)N1C(=O)C(N2C(=O)OCC2c2ccccc2)C1C=Cc1ccccc1 (stereo not drawn) [Example 134B]
16 | 9.8 | O=C(NCc1cccnc1)C(CCC(=O)N1CCN(C2CCCCC2)CC1)N1C(=O)C(N2C(=O)OCC2c2ccccc2)C1C=Cc1ccccc1 (stereo not drawn) [Example 209]
10.5 | 6.43 | COc1cc(CNC(=O)C(CCC(=O)N2CCN(C3CCCCC3)CC2)N2C(=O)C(N3C(=O)OCC3c3ccccc3)C2C=Cc2ccccc2)cc(OC)c1 (stereo not drawn) [Example 201]
7.7 | 4.7 | COc1cc(OC)cc(C(C)(C)NC(=O)C(CCC(=O)N2CCN(C3CCCCC3)CC2)N2C(=O)C(N3C(=O)OCC3c3ccccc3)C2C=Cc2ccccc2)c1 (stereo not drawn) [Example 218]
5.37 | 3.29 | O=C(NCc1ccco1)C(CCC(=O)N1CCN(C2CCCCC2)CC1)N1C(=O)C(N2C(=O)OCC2c2ccccc2)C1C=Cc1ccccc1 (stereo not drawn) [Example 211]
5.08 | 3.11 | O=C(NCCc1ccccc1)C(CCC(=O)N1CCN(C2CCCCC2)CC1)N1C(=O)C(N2C(=O)OCC2c2ccccc2)C1C=Cc1ccccc1 (stereo not drawn) [Example 200]
4.56 | 2.79 | O=C(NCc1cc(Cl)ccc1Cl)C(CCC(=O)N1CCN(C2CCCCC2)CC1)N1C(=O)C(N2C(=O)OCC2c2ccccc2)C1C=Cc1ccccc1 (stereo not drawn) [Example 175]
3.17 | 1.94 | O=C(NC1(c2ccccc2)CCCC1)C(CCC(=O)N1CCN(C2CCCCC2)CC1)N1C(=O)C(N2C(=O)OCC2c2ccccc2)C1C=Cc1ccccc1 (stereo not drawn) [Example 217]
1.17 | 0.72 | Cc1cccc(CNC(=O)C(CCC(=O)N2CCN(C3CCCCC3)CC2)N2C(=O)C(N3C(=O)OCC3c3ccccc3)C2C=Cc2ccccc2)c1 (stereo not drawn) [Example 193]
0.78 | 0.48 | O=C(NCc1cccs1)C(CCC(=O)N1CCN(C2CCCCC2)CC1)N1C(=O)C(N2C(=O)OCC2c2ccccc2)C1C=Cc1ccccc1 (stereo not drawn) [Example 213]
0.61 | 0.38 | O=C(NCc1cccc(Cl)c1Cl)C(CCC(=O)N1CCN(C2CCCCC2)CC1)N1C(=O)C(N2C(=O)OCC2c2ccccc2)C1C=Cc1ccccc1 (stereo not drawn) [Example 176]
